Test results as given in patent US20060211725A1, “Use” (Astellas Pharma Inc., priority 2002, published 2006).

How the values were obtained:
[1] = test system: F344 kidney allograft in LEW recipient rats; assay: Recipient kidney function, treatment with brief tacrolimus (Example 4); assay type: in vivo, rat
Experimental: The rats and kidney transplantation methods described in Example 1 were used. Tacrolimus at dose of 1 mg/kg from day 0 to day 9 after transplantation, and the compound (I) at doses of 10 mg/kg and 15 mg/kg from day 28 today 60 after transplantation were administered orally to recipient rats. In this study LEW recipients were briefly treated with oral tacrolimus at 1 mg/kg/day for 10 days after transplantation to avoid acute rejection and slow chronic rejection that gradually destroys the F344 kidney graft, resulting in functional and histological changes similar to the chronic rejection in human. The isograft, untreated allograft and allograft treated with tacrolimus 1 mg/kg for 10 days alone served as control groups. Blood and urine samples were collected once a week from recipients with kidney grafts described in Example 1 for measuring their plasma creatinine and proteinuria. Plasma creatinine was tested by Sigma Creatinine Kit and proteinuria by Bio-Rad Protein assay.

TGFβ gene expression = assay: RT-PCR for TGFβ gene expression in kidney graft (Example 1); assay type: in vivo, rat; conditions: 10 and 20 mg/kg PO day 0-9; day 90 after grafting; vs untreated allograft control
Experimental: Inbred male Lewis rats (LEW) (RT1^I), weighing 250-300 g, were used as kidney transplantation recipients. Inbred male LEW and Fisher (F344) (RT1^IvI), weighing 250-350 g, were used as isograft and allograft donor rats, respectively. Kidney transplantation was performed using the modified technique of Fisher and Lee. [Fisher et al., Surgery, 58:904-914, 1965] Survival of kidney transplant was measured as time of recipient rat survival. Blood and 24 hr urine samples were collected once a week for plasma creatinine, proteinuria, and the measurement of antibody titer against donor glomeruli basement membrane protein (GBM). Kidney grafts were harvested on the 90th day posttranspalantation and subjected to histology and reverse transcriptase-polymerase chain reaction (RT-PCR) analysis. The compound (I), at doses of 10 mg/kg and 20 mg/kg were administered orally to recipient rats daily from day 0 to day 9 after transplantation. Control isograft and allograft recipients received no drug after transplantation. TGFβ has been considered to play a crucial role for causing chronic allograft rejection. Kidney graft tissues harvested from recipients on day 90th after transplantation were subjected to RT-PCR for TGFβ gene expression. Total RNA was extracted from transplanted kidney tissues by TRIZOL. […]

Structure (SMILES): C#CCC/C(O)=C(\C#N)C(=O)Nc1ccc(C(F)(F)F)cc1 [Compound (I), (2Z)-2-cyano-3-hydroxy-N-[4-(trifluoromethyl)phenyl]-2-hepten-6-ynamide]
- proteinuria ([1]; Compound (I) 10 mg/kg day 28 to 60 after brief tacrolimus 1 mg/kg day 0-9): decreased the progression of proteinuria
- plasma creatinine level ([1]; Compound (I) 10 mg/kg day 28 to 60 after brief tacrolimus 1 mg/kg day 0-9, entire study period): < 1.5 mg/dL
- proteinuria ([1]; Compound (I) 15 mg/kg day 28 to 60 after brief tacrolimus 1 mg/kg day 0-9): decreased the progression of proteinuria
- plasma creatinine ([1]; Compound (I) 15 mg/kg/day day 28 to 60 after brief tacrolimus, increased from week 3 to week 9): it was reversed and maintained in a normal level
- TGFβ gene expression (mRNA) in kidney graft (TGFβ gene expression): inhibited TGFβ gene expression in a dose-dependent manner
